Literature values as cited in US20090169586A1, “STABLE PACKAGED DOSAGE FORM AND PROCESS THEREFOR” (priority 2006, published 2009).

Assays:
[1] = tested on: skin's protection against sunburn; conditions: 24 mg taken for more than 10 weeks
[2] = tested on: children exposed to long-term doses of radiation; conditions: 40 mg capsules twice daily for 3 months, 709 children
[3] = tested on: patients with long-standing non-insulin dependent diabetes mellitus (NIDDM); conditions: 60 mg/day for 3 weeks, 20 NIDDM patients
[4] = tested on: patients with exercise-induced asthma (EIA); conditions: daily dose of 64 mg, 38 patients; all placebo patients showed more than 15% FEV1 reduction

CC1=C(/C=C/C(C)=C/C=C/C(C)=C/C=C/C=C(C)/C=C/C=C(C)/C=C/C2=C(C)CCCC2(C)C)C(C)(C)CCC1 [beta-carotene from Dunaliella, beta-carotene]
skin's protection against sunburn [1]: double the skin's protection against sunburn | serum markers for oxidisation [2]: reduced serum markers for oxidisation | LDL oxidation [3]: normalised high LDL oxidation | patients protected against EIA [4]: 53%
